Assay results taken from PubChem BioAssay (NCI).
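How tested: cells in 96-well plates exposed to compound for 48 hours at five concentrations. At the GI50, growth is halved. At the TGI there is no net growth.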

Columns and labels:
Test in all cases: growth of human tumour cells (NCI), 48 h
MDA-MB-231 breast = tested on: MDA-MB-231 breast
MCF7 breast = tested on: MCF7 breast
HCC-2998 colon = tested on: HCC-2998 colon
DU-145 prostate = tested on: DU-145 prostate
NCI-H522 lung = tested on: NCI-H522 lung
SK-MEL-2 melanoma = tested on: SK-MEL-2 melanoma
EKVX NSCLC = tested on: EKVX NSCLC
TK-10 renal = tested on: TK-10 renal
UACC-257 melanoma = tested on: UACC-257 melanoma
A549 NSCLC = tested on: A549 NSCLC

Question: With `O=C1C[C@H](c2ccccc2)C2(C(=O)c3ccccc3C2=O)[C@@H](c2ccccc2)C1` as the molecule, how does the TGI (MDA-MB-231 breast) read?
Answer: > 100000 nM

Question: What about the TGI (MCF7 breast) of the same molecule?
Answer: 83 µM

Question: And the TGI (HCC-2998 colon)?
Answer: > 100000 nM

Question: And the TGI (DU-145 prostate)?
Answer: > 100 µM

Question: And the TGI (NCI-H522 lung)?
Answer: > 100 µM

Question: And the TGI (SK-MEL-2 melanoma)?
Answer: 69.3 µM

Question: For `Oc1c(I)cc(I)cc1CNCCCN(Cc1ccccn1)Cc1ccccn1`, which GI50 (MDA-MB-231 breast) is on record?
Answer: 1010 nM

Question: What about the TGI (MDA-MB-231 breast) of the same molecule?
Answer: 2120 nM

Question: And the GI50 (EKVX NSCLC)?
Answer: 1000 nM

Question: And the TGI (EKVX NSCLC)?
Answer: 2380 nM

Question: What about the GI50 (MCF7 breast) of the same molecule?
Answer: 1200 nM

Question: And the TGI (MCF7 breast)?
Answer: 3.59 µM

Question: What about the GI50 (TK-10 renal) of the same molecule?
Answer: 922 nM

Question: What about the TGI (TK-10 renal) of the same molecule?
Answer: 1800 nM

Question: What about the GI50 (HCC-2998 colon) of the same molecule?
Answer: 983 nM

Question: And the TGI (HCC-2998 colon)?
Answer: 1910 nM

Question: And the GI50 (DU-145 prostate)?
Answer: 1510 nM

Question: And the TGI (DU-145 prostate)?
Answer: 4.63 µM

Question: And the GI50 (NCI-H522 lung)?
Answer: 1340 nM

Question: And the TGI (NCI-H522 lung)?
Answer: 4.48 µM

Question: What about the GI50 (SK-MEL-2 melanoma) of the same molecule?
Answer: 1180 nM

Question: What about the TGI (SK-MEL-2 melanoma) of the same molecule?
Answer: 2.91 µM

Question: What about the GI50 (UACC-257 melanoma) of the same molecule?
Answer: 1210 nM

Question: And the TGI (UACC-257 melanoma)?
Answer: 3.39 µM

Question: What about the GI50 (A549 NSCLC) of the same molecule?
Answer: 1320 nM

Question: And the TGI (A549 NSCLC)?
Answer: 3.82 µM

Question: What does the source list for `COc1ccc(C2C(C(=O)O)=C(COC(C)=O)Oc3cc4c(cc32)OCO4)cc1` (stereo not given)?
Answer: TGI (EKVX NSCLC): > 100000 nM; TGI (TK-10 renal): > 100000 nM; TGI (UACC-257 melanoma): > 100 µM; TGI (A549 NSCLC): > 100 µM
